Experimental data from patent US10065990B2, “Cyclic peptide compound, and preparation method, pharmaceutical composition and use thereof” (HANGZHOU GUANYU BIO-MEDICAL CO., LTD, priority 2013, dated 2018).
Like-named read-outs stand apart in the source and are kept apart here.

Columns and labels:
[1] = tested on: HCC827 (human non-small cell lung cancer cells); test: MTT cancer cell growth inhibition; assay type: cell-based; details: Homo sapiens, HCC827, 72 h, MTT, 72 hours incubation, HCC827 cells; read-out: GI50 HCC827
Procedure, shortened: (§1)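 Read-out was formazan absorbance at 570 nm after a 4 h MTT step and DMSO solubilisation, converted to cell viability and fitted for GI50. Beforehand, cells (1500/well, overnight attachment) were treated with compound at 10^−5 to 10^−10 M for 72 h at 37° C.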

[2] = tested on: MCF-7 (human breast cancer cells); test: MTT cancer cell growth inhibition; assay type: cell-based; details: Homo sapiens, MCF7, 72 h, 72 hours incubation, read-out: GI50 MCF
Procedure, shortened: as §1

[3] = tested on: H1975 (non-small cell lung adenocarcinoma); test: MTT cancer cell growth inhibition; assay type: cell-based; details: Homo sapiens, NCI-H1975, 72 h, MTT, 72 hours incubation, H1975 cells; read-out: GI50 H1975
Procedure, shortened: as §1

[4] = tested on: K562 (human leukemia cells); test: MTT cancer cell growth inhibition; assay type: cell-based; details: Homo sapiens, K562, 72 h, MTT, 72 hours incubation, K562 cells; read-out: GI50 K562
Procedure, shortened: as §1

[5] = tested on: PANC-1 (Pac-1, human pancreatic cancer cells); test: MTT cancer cell growth inhibition; assay type: cell-based; details: Homo sapiens, PANC-1, 72 h, MTT, 72 hours incubation, read-out: GI50 PAN
Procedure, shortened: as §1

[6] = tested on: KBM-5 (human chronic myelogenous leukemia); test: MTT cancer cell growth inhibition; assay type: cell-based; details: Homo sapiens, KBM5, 72 h, MTT, 72 hours incubation, KBM-5 cells; read-out: GI50 KBM-5
Procedure, shortened: as §1

[7] = tested on: lncap (prostate cancer cells); test: MTT cancer cell growth inhibition; assay type: cell-based; details: Homo sapiens, LNCaP, 72 h, MTT, 72 hours incubation, read-out: GI50 lnca
Procedure, shortened: as §1

[8] = tested on: U937 (human leukemia cells); test: MTT cancer cell growth inhibition; assay type: cell-based; details: Homo sapiens, U-937, 72 h, MTT, 72 hours incubation, read-out: GI50 U93
Procedure, shortened: as §1

[9] = tested on: SGC-7901 (human gastric cancer cells); test: MTT cancer cell growth inhibition; assay type: cell-based; details: Homo sapiens, SGC-7901, 72 h, MTT, 72 hours incubation, SGC-7901 cells; read-out: GI50 SGC-7901
Procedure, shortened: as §1

[10] = tested on: N-87 (human gastric cancer cells); test: MTT cancer cell growth inhibition; assay type: cell-based; details: Homo sapiens, 72 h, MTT, 72 hours incubation, N-87 cells; read-out: GI50 N-87
Procedure, shortened: as §1

[11] = tested on: KBM5-T315I (human chronic myelogenous leukemia); test: MTT cancer cell growth inhibition; assay type: cell-based; details: Homo sapiens, 72 h, MTT, 72 hours incubation, KBM5-T315I cells; read-out: GI50 KBM5-T315I
Procedure, shortened: as §1

[12] = tested on: BGC-823 (human gastric cancer cells); test: MTT cancer cell growth inhibition; assay type: cell-based; details: Homo sapiens, BGC-823, 72 h, MTT, 72 hours incubation, read-out: GI50 BG
Procedure, shortened: as §1

[13] = tested on: HT1080 (human fibrosarcoma cells); test: MTT cancer cell growth inhibition; assay type: cell-based; details: Homo sapiens, HT-1080, 72 h, MTT, 72 hours incubation, read-out: GI50 HT1
Procedure, shortened: as §1

[14] = tested on: A549 (human lung cancer cells); test: MTT cancer cell growth inhibition; assay type: cell-based; details: Homo sapiens, A549, 72 h, MTT, 72 hours incubation, read-out: GI50 A54
Procedure, shortened: as §1

[15] = tested on: MOLT-4 (human acute lymphoblastic leukemia cells); test: MTT cancer cell growth inhibition; assay type: cell-based; details: Homo sapiens, MOLT-4, 72 h, MTT, 72 hours incubation, read-out: GI50 Mol
Procedure, shortened: as §1

[16] = tested on: Huh-7 (human hepatoma cells); test: MTT cancer cell growth inhibition; assay type: cell-based; details: Homo sapiens, Huh-7, 72 h, MTT, 72 hours incubation, Huh-7 cells; read-out: GI50 Huh-7
Procedure, shortened: as §1

[17] = tested on: Bel-7402 (human hepatoma cells); test: MTT cancer cell growth inhibition; assay type: cell-based; details: Homo sapiens, Bel-7402, 72 h, MTT, 72 hours incubation, Bel-7402 cells; read-out: GI50 Bel-7402
Procedure, shortened: as §1

[18] = tested on: MDA-MB-231 (breast cancer cells); test: MTT cancer cell growth inhibition; assay type: cell-based; details: Homo sapiens, MDA-MB-231, 72 h, read-out: GI50 MDA-MB-231, MTT, 72 hours incubation, MDA-MB-231 cells
Procedure, shortened: as §1

[19] = tested on: Hela (human cervical cancer cells); test: MTT cancer cell growth inhibition; assay type: cell-based; details: Homo sapiens, HeLa, 72 h, MTT, 72 hours incubation, read-out: GI50 Hela
Procedure, shortened: as §1

[20] = tested on: DU145 (human prostate cancer cells); test: MTT cancer cell growth inhibition; assay type: cell-based; details: Homo sapiens, DU-145, 72 h, MTT, 72 hours incubation, read-out: GI50 Du1
Procedure, shortened: as §1

HDAC7 = molecular target: T1, HDAC7 (Homo sapiens, UniProt Q8WUI4); test: HDAC biochemical activity measurement (fluorescent substrate deacetylation);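 note: fluorogenic deacetylation assay using acetyl-lysine substrate at 20 µM, enzyme and compound incubated 30 min at 37 °C, then developer added, fluorescence read at 360/460 nm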; details: HDAC7; 37° C. 30 minutes
T1 sequence (Q8WUI4 1-952): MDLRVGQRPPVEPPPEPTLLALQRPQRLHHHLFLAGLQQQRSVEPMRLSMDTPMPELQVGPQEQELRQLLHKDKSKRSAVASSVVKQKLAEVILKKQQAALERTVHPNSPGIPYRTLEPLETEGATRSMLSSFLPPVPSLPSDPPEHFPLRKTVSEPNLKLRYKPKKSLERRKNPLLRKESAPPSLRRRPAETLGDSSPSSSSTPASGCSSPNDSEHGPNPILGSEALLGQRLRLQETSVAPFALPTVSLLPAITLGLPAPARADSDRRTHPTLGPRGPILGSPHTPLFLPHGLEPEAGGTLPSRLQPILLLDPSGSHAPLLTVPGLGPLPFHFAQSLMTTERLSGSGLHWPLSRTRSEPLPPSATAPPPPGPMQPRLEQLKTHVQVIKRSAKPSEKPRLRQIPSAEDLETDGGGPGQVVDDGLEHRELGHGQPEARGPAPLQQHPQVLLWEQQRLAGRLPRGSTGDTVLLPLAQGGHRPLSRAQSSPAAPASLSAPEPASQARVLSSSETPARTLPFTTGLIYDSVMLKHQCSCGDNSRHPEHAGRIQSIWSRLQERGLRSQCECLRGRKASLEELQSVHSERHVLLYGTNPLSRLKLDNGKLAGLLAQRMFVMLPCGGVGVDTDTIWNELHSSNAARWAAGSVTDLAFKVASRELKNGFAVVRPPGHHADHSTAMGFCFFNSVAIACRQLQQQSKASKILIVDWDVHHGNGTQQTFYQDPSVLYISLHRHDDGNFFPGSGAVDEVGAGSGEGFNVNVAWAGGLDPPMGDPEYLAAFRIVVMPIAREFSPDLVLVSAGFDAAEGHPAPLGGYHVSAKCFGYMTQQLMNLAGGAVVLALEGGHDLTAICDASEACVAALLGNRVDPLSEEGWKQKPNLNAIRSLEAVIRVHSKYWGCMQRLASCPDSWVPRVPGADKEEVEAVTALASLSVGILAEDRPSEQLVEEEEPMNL

Row | SMILES | GI50 [1] [nM] | GI50 [3] [nM] | GI50 [4] [nM] | GI50 [6] [nM] | GI50 [9] [nM] | GI50 [10] [nM] | GI50 [11] [nM] | GI50 [16] [nM] | GI50 [17] [nM] | GI50 [18] [nM] | IC50 HDAC7 (HDAC7) | GI50 ([2]; MCF-7 cells) [nM] | GI50 ([5]; PANC-1 cells) [nM] | GI50 ([7]; lncap cells) [nM] | GI50 ([8]; U937 cells) [nM] | GI50 ([12]; BGC-823 cells) [nM] | GI50 ([13]; HT1080 cells) [nM] | GI50 ([14]; A549 cells) [nM] | GI50 ([15]; MOLT-4 cells) [nM] | GI50 ([19]; Hela cells) [nM] | further results
1 | C/C=C1\NC(=O)c2nc(ccc2F)CNC(=O)C[C@@H](/C=C/CCSC(=O)CCCC)OC(=O)[C@H](C(C)C)NC1=O [Example 39] | 83 | 35 | 26 | 72 | 41 | 50 | 67 | 22 | 83 | 22 | no activity | – | – | – | – | – | – | – | – | – | GI50 [2]: 60 nM; GI50 [5]: 80 nM; GI50 [7]: 20 nM; GI50 [8]: 30 nM; GI50 [12]: 50 nM; GI50 [13]: 80 nM; GI50 [14]: 40 nM; GI50 [15]: 20 nM; GI50 [19]: 70 nM; GI50 [20]: 20 nM
2 | C/C=C1\NC(=O)c2cccc(n2)CNC(=O)C[C@@H](/C=C/CCSC(C)=O)OC(=O)[C@@H](C)NC1=O [Example 25] | 33 | 42 | 27 | 59 | 29 | 38 | 29 | 62 | 93 | 92 | no activity | – | – | – | – | – | – | – | – | – | GI50 [2]: 53600 nM; GI50 [5]: 550 nM; GI50 [7]: 700 nM; GI50 [8]: 2290 nM; GI50 [12]: 3300 nM; GI50 [13]: 39200 nM; GI50 [14]: 15400 nM; GI50 [15]: 300 nM; GI50 [19]: 67700 nM; GI50 [20]: 1300 nM
3 | C/C=C1\NC(=O)c2cc(SC)cc(n2)CNC(=O)C[C@@H](/C=C/CCSC(C)=O)OC(=O)[C@@H](C)NC1=O [Compound 221] | 41 | 35 | 74 | 36 | 26 | 65 | 41 | 41 | 57 | 43 | no activity | 80 | 50 | 20 | 70 | 50 | 80 | 20 | 70 | 30 | GI50 ([20]; DU145 cells): 50 nM
4 | C/C=C1\NC(=O)c2nc(ccc2SC)CNC(=O)C[C@@H](/C=C/CCSC(C)=O)OC(=O)[C@@H](C)NC1=O [Compound 220] | 26 | 57 | 83 | 83 | 28 | 46 | 33 | 53 | 55 | 45 | no activity | 20 | 30 | 60 | 80 | 30 | 80 | 40 | 50 | 30 | GI50 ([20]; DU145 cells): 30 nM
5 | C/C=C1\NC(=O)c2ccc(SC)c(n2)CNC(=O)C[C@@H](/C=C/CCSC(=O)CCCCCCC)OC(=O)[C@H](C(C)C)NC1=O [Compound 149] | 29 | 70 | 32 | 21 | 42 | 39 | 41 | 75 | 63 | 35 | no activity | 60 | 30 | 50 | 20 | 30 | 80 | 20 | 80 | 50 | GI50 ([20]; DU145 cells): 60 nM
